This note sets out measurements from patent US9107816B2, “Implantable device for controlled dissolution and diffusion of low solubility drug” (TARIS BIOMEDICAL LLC, priority 2011, dated 2015).

This series can be described thus: In vitro release of mitomycin C from housing module (100% MMC tablets). The class given is physicochemical. The note with it: 100% MMC tablet, one face exposed, 20 mL deionized water at 37° C., replenished daily, 8 days, n=3, FIG. 43. As to the method: The diameter of the tablets was either 2.1 mm or 2.6 mm with the height of 2 mm. The mass of the tablet was approximately 10 mg for 2.1 mm diameter tablet and 16 mg for 2.6 mm diameter tablet.
Housing modules were made from segments of silicone tube and silicone adhesive. […] The surface ‘b’ of tablet 402 was surrounded by silicone tube 406 and the surface ‘c’ was in contact with silicone adhesive 408.
Specifically, the housing module 400 was submerged in 20 mL deionized water at 37° C., with the release medium being entirely replenished daily during the test period. The cumulative release of MMC was measure over the test period. In vitro release data is shown in FIG. 43 (n=3; the error bars indicate S.D. around the mean.) (Some error bars are not shown, i.e., when they are smaller than the symbols.).

Turning to `CO[C@@]12[C@H](COC(N)=O)C3=C(C(=O)C(C)=C(N)C3=O)N1C[C@@H]1N[C@@H]12` [MMC, mitomycin C], the “cumulative release of MMC (release kinetics)” value is “near zero order release was achieved until the tablet was all eroded”.
